Laboratory results reported in ChEMBL document CHEMBL1201862, “PubChem BioAssay data set” (2004).
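Protocol summary: plate cells (96-well), add compound at 5 concentrations, incubate 48 h, interpolate endpoints linearly. GI50: concentration for 50% inhibition of growth.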 Active and inactive are the calls of the source. No stated cut-off is given here; in the data, active = GI50 up to about 1.1 µM and inactive = higher.

Tests used:
Assay in all cases: growth of human tumour cells (NCI), 48 h
DLD-1 = tested on: DLD-1
DMS-273 = tested on: DMS-273
KM-20L2 = tested on: KM-20L2
LXFL 529 = tested on: LXFL 529
M19-MEL = tested on: M19-MEL
DMS-114 = tested on: DMS-114
HOP-18 = tested on: HOP-18
XF498 = tested on: XF498
RXF 631 = tested on: RXF 631

Measured: GI50

COc1cccc(-c2cc(O)c3cc(OC)c(OC)cc3n2)c1
inactive: DLD-1 42.3 µM | DMS-273 36.3 µM | KM-20L2 26.6 µM | LXFL 529 63.1 µM | M19-MEL 59.8 µM

CC1=CC(=O)NP(=O)(Oc2ccc(Cl)cc2)N1 (configuration not stated)
inactive: DLD-1 > 100 µM | DMS-114 > 100 µM | DMS-273 > 100 µM | HOP-18 > 100 µM | KM-20L2 > 100 µM | LXFL 529 > 100 µM | M19-MEL > 100 µM | XF498 > 100 µM

Cc1ccc(S(=O)(=O)N[C@H](C(=O)O)c2ccccc2)cc1
inactive: DLD-1 > 100 µM | DMS-273 > 100 µM | HOP-18 > 100 µM | KM-20L2 > 100 µM | LXFL 529 > 100 µM | M19-MEL > 100 µM | RXF 631 > 100 µM | XF498 > 100 µM

C/C(=N\N(c1ccccc1)c1ccccc1)c1c(O)cc(C)oc1=O
inactive: DLD-1 76.2 µM | HOP-18 > 100 µM | KM-20L2 > 100 µM | LXFL 529 78.5 µM | M19-MEL 81.7 µM

NC(=O)NC1C(C(N)=O)N(Cc2ccccc2)C(=O)N1Cc1ccccc1 (configuration not stated)
inactive: DLD-1 > 100 µM | DMS-114 > 100 µM | DMS-273 > 100 µM | HOP-18 > 100 µM | KM-20L2 46 µM | LXFL 529 > 100 µM | M19-MEL > 100 µM | RXF 631 > 100 µM | XF498 > 100 µM

CC1=C(/C(C)=N/NS(=O)(=O)c2ccc(C)cc2)Sc2ccccc2N1
inactive: DMS-114 43.4 µM | DMS-273 78.3 µM | HOP-18 72.1 µM | KM-20L2 > 100 µM | LXFL 529 79.6 µM | M19-MEL 43.7 µM | RXF 631 > 100 µM

O=[N+]([O-])c1cccc(C2SCc3nc4ccccc4n32)c1 (configuration not stated)
inactive: DLD-1 62.8 µM | DMS-114 53.5 µM | DMS-273 85.7 µM | HOP-18 > 100 µM | KM-20L2 > 100 µM | LXFL 529 55.8 µM | M19-MEL > 100 µM | XF498 > 10 µM

CC1=C(C(=O)NCc2ccccc2)C(c2ccc([N+](=O)[O-])cc2)C(C(=O)NCc2ccccc2)=C(C)N1
inactive: DLD-1 36.7 µM | DMS-114 30.2 µM | DMS-273 40.6 µM | HOP-18 > 100 µM | KM-20L2 22 µM | LXFL 529 36.7 µM | M19-MEL 21.3 µM | XF498 59 µM

O=C1C(c2ccccc2)=C(c2ccccc2)[C@H](c2ccccc2)[C@]1(Cc1nnn(-c2ccc([N+](=O)[O-])cc2)c1N1CCOCC1)c1ccccc1
inactive: DLD-1 > 37.5 µM | DMS-114 > 37.5 µM | DMS-273 24.9 µM | HOP-18 > 37.5 µM | KM-20L2 > 37.5 µM | LXFL 529 24.4 µM | M19-MEL > 37.5 µM | RXF 631 > 37.5 µM | XF498 8.3 µM

N#CC1C2CCC3(CC2CCN1C(=O)c1ccccc1)OCCO3 (configuration not stated)
inactive: DLD-1 > 100 µM | DMS-114 > 100 µM | DMS-273 > 100 µM | HOP-18 > 100 µM | KM-20L2 > 100 µM | LXFL 529 > 100 µM | M19-MEL > 100 µM | XF498 > 100 µM

CC(C)Cc1ccc(C(C)/C=C2\CCC(CN3CCCCC3)C2=O)cc1 (configuration not stated)
inactive: DLD-1 2.33 µM | DMS-114 2.22 µM | DMS-273 2.86 µM | HOP-18 16.6 µM | KM-20L2 10.4 µM | LXFL 529 1.91 µM | M19-MEL 2.54 µM | XF498 6.78 µM

COCC(=O)CP(=O)(OC)OC
inactive: DMS-114 > 100 µM | DMS-273 > 100 µM | LXFL 529 > 100 µM | M19-MEL > 100 µM | XF498 > 100 µM

Cc1cc(C(=O)NCCN(C)C)c2nc3ccccc3nc2c1
inactive: DLD-1 4.08 µM | DMS-114 3.19 µM | DMS-273 3.87 µM | HOP-18 > 35.1 µM | KM-20L2 3.1 µM | LXFL 529 8.3 µM | M19-MEL 3.13 µM

N#CC(NNC(=O)Cc1ccccc1)c1ccc([N+](=O)[O-])cc1 (configuration not stated)
inactive: DLD-1 > 100 µM | DMS-273 > 100 µM | HOP-18 82.8 µM | LXFL 529 > 100 µM | M19-MEL > 100 µM

CCCCCCCCCCCC(=O)OCC1OC(n2cc(F)c(=O)[nH]c2=O)C(NC(=O)OCc2ccccc2)C(O)C1O (configuration not stated)
inactive: DMS-273 19 µM | KM-20L2 21.4 µM | LXFL 529 18.6 µM | M19-MEL 20 µM

Cc1cccc(C(=O)O)c1C(=O)c1cccc2ccccc12
inactive: DLD-1 > 100 µM | DMS-114 > 100 µM | DMS-273 > 100 µM | HOP-18 > 100 µM | KM-20L2 33.5 µM | LXFL 529 > 100 µM | M19-MEL > 100 µM

CC(Oc1ccc(OCC2CCCCC2)cc1)C(=O)OCC(=O)c1ccc(-c2ccccc2)cc1 (configuration not stated)
inactive: DLD-1 > 100 µM | DMS-114 > 100 µM | DMS-273 > 100 µM | HOP-18 22.6 µM | LXFL 529 > 100 µM | M19-MEL > 100 µM | XF498 > 100 µM

CC(C)C(/C=C/c1ccccc1)=N\NC(=O)N/N=C(/C=C/c1ccccc1)C(C)C
inactive: DLD-1 34.8 µM | DMS-114 13 µM | DMS-273 19.8 µM | KM-20L2 22.5 µM | LXFL 529 23.2 µM | M19-MEL 21 µM | XF498 26.4 µM

O=C(CN(Cc1ccccc1)Cc1ccccc1)N1CCc2c([nH]c3ccccc23)C1c1cccnc1 (configuration not stated)
inactive: DLD-1 6.4 µM | DMS-114 4.35 µM | DMS-273 4.74 µM | HOP-18 46.5 µM | KM-20L2 6.92 µM | LXFL 529 6.67 µM | M19-MEL 5.98 µM | XF498 13.9 µM

Cc1cccc(CC(C)(C)C)c1NC(=O)C(=O)C(C(=O)c1ccc2ccccc2c1)C1OC(=O)c2ccccc21 (configuration not stated)
inactive: DLD-1 14 µM | DMS-114 10.4 µM | LXFL 529 7.01 µM | M19-MEL 14.6 µM

CC(C)(C)C(=O)O[C@@H]1COC2C(O)COC21 (some centres not stated)
inactive: DLD-1 > 100 µM | DMS-114 > 100 µM | DMS-273 > 100 µM | HOP-18 > 100 µM | LXFL 529 > 100 µM | M19-MEL > 100 µM | RXF 631 > 100 µM | XF498 > 100 µM

COc1cc2c(cc1OC)[C@]1(O)C(=O)c3ccc4c(c3O[C@@H]1CO2)C[C@H](C(C)(C)O)O4
inactive: DLD-1 > 100 µM | DMS-114 3.61 µM | DMS-273 > 100 µM | KM-20L2 > 100 µM | LXFL 529 56.1 µM | M19-MEL > 100 µM | XF498 > 100 µM
